Like-named read-outs stand apart in the source and are kept apart here. One block for each compound: values may come before it.
Experiments:
[1] = system: BCRP; settings: read-out: IC50 BCRP; BCRP-mediated RSV transport, membrane vesicles; ref Varma et al. (2019); cited from earlier work
[2] = for I2, maximal theoretical gastrointestinal concentration: dose/250 ml; for Imax,u, unbound steady-state plasma peak concentration: fu×I1
[3] = target: T1, BCRP (Homo sapiens, UniProt Q9UNQ0); settings: CP at 75 and 300 mg
T1 sequence (Q9UNQ0 1-655): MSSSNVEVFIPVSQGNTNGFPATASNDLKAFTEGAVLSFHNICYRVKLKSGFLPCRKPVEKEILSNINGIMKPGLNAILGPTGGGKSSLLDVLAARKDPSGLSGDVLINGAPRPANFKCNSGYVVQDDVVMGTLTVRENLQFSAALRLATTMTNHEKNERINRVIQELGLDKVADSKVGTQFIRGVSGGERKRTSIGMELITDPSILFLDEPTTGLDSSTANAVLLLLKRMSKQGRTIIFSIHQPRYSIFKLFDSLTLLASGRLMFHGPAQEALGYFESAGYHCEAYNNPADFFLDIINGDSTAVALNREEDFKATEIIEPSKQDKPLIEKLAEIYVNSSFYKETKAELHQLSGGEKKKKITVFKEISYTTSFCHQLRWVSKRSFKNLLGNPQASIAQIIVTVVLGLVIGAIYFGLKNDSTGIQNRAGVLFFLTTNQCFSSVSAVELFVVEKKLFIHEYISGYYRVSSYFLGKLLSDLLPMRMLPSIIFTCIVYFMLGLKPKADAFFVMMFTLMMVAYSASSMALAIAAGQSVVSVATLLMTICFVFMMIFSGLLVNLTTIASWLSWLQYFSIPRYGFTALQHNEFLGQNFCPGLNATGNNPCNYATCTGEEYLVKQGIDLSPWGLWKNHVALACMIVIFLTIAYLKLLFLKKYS

[4] = target: T1, BCRP; assay: Inhibition of RSV transport in BCRP-expressing membrane vesicles; format: biochemical; parameters: purchased GenoMembrane Co., Ltd. (Yokohama, Japan) GM0008; host or cells: Sf9 insect cells
Protocol: (§1) The vesicular transport activity was determined by the 96-well rapid filtration method in BCRP- and MRP2-expressing membrane vesicles. […] Meanwhile, 5 μL RSV (final concentration, 1 μM) and 20 μL reagent C2 were pre-incubated at 37°C for 5 min. Then, the transport was initiated by mixing them in a 50 μL reaction system and incubated for the designated time at 37°C. The transport was terminated by adding 200 μL of cold buffer B2 at 4°C. Then, the mixture was filtered using a 96-well filter plate. After washing the vesicles five times with 200 μL of cold buffer B2 at 4°C, the vesicles were lysed with 50 μL of 80% […] twice and then centrifuged at 2000 rpm/min for 2 min. Lysates were collected and then centrifuged at 12,000 rpm/min for 5 min. The supernatants were injected onto the LC-MS/MS. The same procedures were applied to AMP-containing samples except that reagent D2 was used instead of reagent C2. All experiments were performed in quadruplicate.
Statistical analysis was performed using SPSS ver. 22.0 (IBM, Chicago, IL, United States).

[5] = target: T2, MRP2 (Homo sapiens, UniProt Q92887); assay: RSV uptake into MRP2-expressing membrane vesicles; format: biochemical; settings: ATP vs AMP; data not shown
T2 construct: purchased GenoMembrane Co., Ltd. (Yokohama, Japan) GM0001
T2 sequence (Q92887 whole entry): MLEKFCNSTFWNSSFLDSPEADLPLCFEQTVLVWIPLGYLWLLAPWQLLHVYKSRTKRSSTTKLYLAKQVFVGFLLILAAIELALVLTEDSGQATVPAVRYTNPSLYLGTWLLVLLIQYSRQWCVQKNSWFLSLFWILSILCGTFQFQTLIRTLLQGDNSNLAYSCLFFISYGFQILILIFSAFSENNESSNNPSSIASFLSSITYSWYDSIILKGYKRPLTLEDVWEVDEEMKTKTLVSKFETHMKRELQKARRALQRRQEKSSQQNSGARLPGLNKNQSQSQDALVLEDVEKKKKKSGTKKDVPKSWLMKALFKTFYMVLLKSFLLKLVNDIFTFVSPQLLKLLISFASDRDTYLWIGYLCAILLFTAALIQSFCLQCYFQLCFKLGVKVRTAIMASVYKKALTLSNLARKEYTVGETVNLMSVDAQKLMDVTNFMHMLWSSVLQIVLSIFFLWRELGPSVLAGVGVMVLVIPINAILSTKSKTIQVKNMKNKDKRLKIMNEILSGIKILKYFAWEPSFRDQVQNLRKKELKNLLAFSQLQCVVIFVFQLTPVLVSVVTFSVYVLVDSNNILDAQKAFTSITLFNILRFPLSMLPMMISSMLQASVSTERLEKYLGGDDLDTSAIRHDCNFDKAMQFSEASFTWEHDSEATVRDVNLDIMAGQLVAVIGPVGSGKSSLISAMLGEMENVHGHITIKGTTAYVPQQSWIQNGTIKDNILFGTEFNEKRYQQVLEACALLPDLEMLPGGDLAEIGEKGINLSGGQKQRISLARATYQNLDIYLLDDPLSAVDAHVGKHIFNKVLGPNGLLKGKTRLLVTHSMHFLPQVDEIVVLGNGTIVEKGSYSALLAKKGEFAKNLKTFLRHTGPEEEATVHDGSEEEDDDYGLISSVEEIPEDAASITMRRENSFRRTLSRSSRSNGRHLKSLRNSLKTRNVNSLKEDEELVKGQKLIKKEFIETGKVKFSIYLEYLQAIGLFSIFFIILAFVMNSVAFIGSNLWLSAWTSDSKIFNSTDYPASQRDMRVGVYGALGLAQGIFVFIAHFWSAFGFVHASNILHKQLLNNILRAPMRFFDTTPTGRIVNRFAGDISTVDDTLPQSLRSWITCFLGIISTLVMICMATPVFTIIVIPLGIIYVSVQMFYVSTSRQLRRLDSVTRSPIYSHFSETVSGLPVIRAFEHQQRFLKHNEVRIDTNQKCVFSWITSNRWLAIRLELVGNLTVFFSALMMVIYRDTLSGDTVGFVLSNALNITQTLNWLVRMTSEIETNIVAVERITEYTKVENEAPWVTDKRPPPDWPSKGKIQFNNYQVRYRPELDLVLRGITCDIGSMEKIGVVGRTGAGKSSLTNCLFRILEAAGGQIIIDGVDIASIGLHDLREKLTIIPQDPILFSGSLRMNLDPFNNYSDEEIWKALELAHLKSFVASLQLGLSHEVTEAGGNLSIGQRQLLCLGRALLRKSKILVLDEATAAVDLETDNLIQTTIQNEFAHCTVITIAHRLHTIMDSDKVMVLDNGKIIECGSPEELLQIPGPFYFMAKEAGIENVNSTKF
Protocol: as §1

[6] = Hepatobiliary transport study in rats; format: in vivo, Sprague-Dawley rats; settings: for Tmax / Kp / Cmax / AUC(0-t): Sprague-Dawley, rat; for Tmax / Cmax / AUC(0-t): 5 mg/kg; for Kp: liver/plasma, read-out: Liver AUC0-5min/Plasma AUC0-5min; for AUC(0-t): read-out: Plasma AUC0-5min (converted); for CLint,bile / CLuptake,liver: integration plot method
Protocol: For the hepatobiliary transport study, 24 rats were randomly assigned into eight groups (n = 3, each group, groups V to XII) and they received a p.o. dose as oral gavage of CP (27 mg/kg) for 20 days. The remaining 24 rats were also randomly assigned into eight groups (n = 3, each group, groups XIII to XX) and received the same volume of vehicle control for 20 days. […] On day 21, rats were anesthetized and incised along the abdominal midline, and bile duct intubation was performed prior to drug administration. […] Rats were euthanized at 0.25, 0.47, 0.67, 1, 1.5, 2, 2.5, and 5 min post dose. Arterial blood, bile, and liver samples were collected.
Supplementary Table 2. Pharmacokinetic parameters of hepatobiliary transport study in rats. (n= 3) RSV CLuptake,liver and CLint,bile were calculated by integration plot methods.^[1, 2]

[7] = human, ref Pinheiro et al., 2012, Remsberg et al., 2013, cited from earlier work
[8] = system: OATP1B1; parameters: method as in Elsby et al., 2016; settings: ref Elsby et al., 2016; cited from earlier work
[9] = system: sodium taurocholate cotransporting polypeptide (NTCP); settings: ref Elsby et al., 2016; cited from earlier work
[10] = plasma, iv, i.v. RSV 5 mg/kg, with DDI (multiple p.o. CP 27 mg/kg)
[11] = plasma, iv, i.v. RSV 5 mg/kg, without DDI
[12] = i.v. RSV 5 mg/kg, with DDI (multiple p.o. CP 27 mg/kg)

- Iin,max,u, steady-state unbound liver inlet concentration ([2]; 75 mg CP): 0.31 µM
- I2, maximal theoretical gastrointestinal concentration ([2]; 75 mg CP): 932.19 µM
- Imax,u, unbound steady-state plasma peak concentration ([2]; 75 mg CP): 0.00002 µM
- Iin,max,u, steady-state unbound liver inlet concentration ([2]; 300 mg CP): 1.24 µM
- I2, maximal theoretical gastrointestinal concentration ([2]; 300 mg CP): 3,728.77 μM
- Imax,u, unbound steady-state plasma peak concentration ([2]; 300 mg CP): 0.00018 µM
- [I2]/IC50 BCRP ratio [3]: > 10
- IC50 ([4]; IC50 BCRP-mediated RSV transport, 1 μM RSV, membrane vesicles): ~0.001 µM
- inhibition at 0.001 μM ([4]; human): 56.9%
SMILES: COC(=O)[C@H](c1ccccc1Cl)N1CCc2sccc2C1 [CP, clopidogrel]
- IC50 [1]: 104 µM

SMILES: CC(C)c1nc(N(C)S(C)(=O)=O)nc(-c2ccc(F)cc2)c1/C=C/[C@@H](O)C[C@@H](O)CC(=O)O [RSV, rosuvastatin]
- Uptake ratio into MRP2-expressing membrane vesicles [5]: less than 2
- Tmax ([6]; liver, iv, i.v. RSV 5 mg/kg, with DDI (multiple p.o. CP 27 mg/kg), read-out: Liver Tmax (converted)): 1.72 min
- Tmax ([6]; liver, iv, i.v. RSV 5 mg/kg, without DDI, read-out: Liver Tmax (converted)): 2 min
- Kp ([6]; intravenous, i.v. RSV 5 mg/kg, with DDI (multiple p.o. CP 27 mg/kg)): 1.38 ± 0.13
- Kp ([6]; iv, i.v. RSV 5 mg/kg, without DDI): 1.72 ± 0.18
- Cmax [6, 10]: 56 ± 9.15 µg/mL
- AUC(0-t) [6, 10]: 1710 ng·h/mL
- Tmax ([6]; plasma, iv, i.v. RSV 5 mg/kg, with DDI (multiple p.o. CP 27 mg/kg), read-out: Plasma Tmax (converted)): 0.36 min
- Cmax [6, 11]: 62.1 ± 24.2 µg/mL
- AUC(0-t) [6, 11]: 1190 ng·h/mL
- Tmax ([6]; plasma, iv, i.v. RSV 5 mg/kg, without DDI, read-out: Plasma Tmax (converted)): 0.31 min
- Bile0-5min (with DDI/without DDI)% ([6]; i.v. RSV 5 mg/kg): 84.95%
- Bile0-5min/Liver AUC0-5min (with DDI/without DDI)% ([6]; i.v. RSV 5 mg/kg): 73.81%
- CLint,bile (with DDI/without DDI)% ([6]; i.v. RSV 5 mg/kg): 60.81%
- CLuptake,liver (with DDI/without DDI)% ([6]; i.v. RSV 5 mg/kg): 47.62%
- Liver AUC0-5min (with DDI/without DDI)% ([6]; i.v. RSV 5 mg/kg): 115.37%
- Liver AUC0-5min/Plasma AUC0-5min (with DDI/without DDI)% ([6]; i.v. RSV 5 mg/kg): 80.23%
- Liver Cmax (with DDI/without DDI)% ([6]; i.v. RSV 5 mg/kg): 94.79%
- Liver Tmax (with DDI/without DDI)% ([6]; i.v. RSV 5 mg/kg): 86.00%
- Plasma AUC0-5min (with DDI/without DDI)% ([6]; i.v. RSV 5 mg/kg): 143.73%
- Plasma Cmax (with DDI/without DDI)% ([6]; i.v. RSV 5 mg/kg): 90.18%
- Plasma Tmax (with DDI/without DDI)% ([6]; i.v. RSV 5 mg/kg): 116.13%
- Bile0-5min [6, 12]: 218.80 ± 138.59 µg
- Bile0-5min/Liver AUC0-5min [6, 12]: 1.55 ± 0.98 g/min
- Liver AUC0-5min [6, 12]: 141196.71 ± 13631.53 ng·min/g
- Liver Cmax [6, 12]: 36840.00 ± 1304.15 ng/g
- CLint,bile [6, 12]: 1.80 ± 1.10 g/min
- CLuptake,liver [6, 12]: 0.40 ± 0.15 mL/min/g
- Bile0-5min ([6]; i.v. RSV 5 mg/kg, without DDI): 257.57 ± 104.42 µg
- Bile0-5min/Liver AUC0-5min ([6]; i.v. RSV 5 mg/kg, without DDI): 2.10 ± 0.85 g/min
- Liver AUC0-5min ([6]; i.v. RSV 5 mg/kg, without DDI): 122384.16 ± 13075.60 ng·min/g
- Liver Cmax ([6]; i.v. RSV 5 mg/kg, without DDI): 38866.67 ± 3503.67 ng/g
- CLint,bile ([6]; i.v. RSV 5 mg/kg, without DDI): 2.96 ± 1.50 g/min
- CLuptake,liver ([6]; i.v. RSV 5 mg/kg, without DDI): 0.84 ± 0.45 mL/min/g
- Decrease of RSV CLint,bile in presence of CP ([6]; i.v. RSV, not significant): 39.19%
- Decrease of RSV CLuptake,liver in presence of CP ([6]; i.v. RSV, not significant): 52.38%
- Decrease of RSV bile0–5min/liver AUC0–5min in presence of CP ([6]; i.v. RSV, not significant): 26.19%
- Decrease of RSV liver AUC0–5min/plasma AUC0–5min in presence of CP ([6]; i.v. RSV, not significant): 19.77%
- Increase of RSV AUC with concomitant CP ([7]; 20 mg RSV): 2.0 fold
- Increase of RSV Cmax with concomitant CP ([7]; 20 mg RSV): 2.2 fold
- Increase of RSV AUC with concomitant CP ([7]; 40 mg RSV): 1.7 fold
- Increase of RSV Cmax with concomitant CP ([7]; 40 mg RSV): 1.3 fold
- Individual contribution of OATP1B1 to hepatic uptake [8]: 0.38
- Individual contribution of NTCP to hepatic uptake [9]: 0.21

From article PMC8504577, “Evaluation of a Clinically Relevant Drug–Drug Interaction Between Rosuvastatin and Clopidogrel and the Risk of Hepatotoxicity” (Frontiers in Pharmacology, 2021)
